Data set [1] has as its system Mucor miehei. The data set is described as follows: Plate agar diffusion test, minimal inhibitory concentration against Mucor miehei. In kind it is cell-based. Conditions: Rhizomucor miehei. The protocol: Die antibakterielle Wirkung kommt sowohl gegen gram-positive wie gram-negative Bakterien zur Geltung, wie z.B. im Platten-Agardiffusionstest in vitro [10 µl/Testrondelle (6 mm ø)] gezeigt werden kann, wo sie bei verschiedenen pathogenen Keimen eine minimale Hemmkonzentration im Bereiche von 1-200 µg/ml zeigen. Von den gegenüber den neuen Verbindungen empfindlichen gram-positiven Bakterien seien z.B. die folgenden genannt: Bacillus cereus, Bacillus subtilis, Clostridium pasteurianum, Corynebacterium rathayi, von den gram-negativen folgende: Agrobacterium tumefaciens, Erwinia amylovorum, Escherichia coli K 12 wild type, Klebsiella aerogenes, Serratia marcescens 13880, Serratia marcescens 30122.
Die antifungische Wirkung tritt praktisch gegenüber den meisten Pilzen auf. So weist das Antibiotikum Tü 1718 und insbesondere die Verbindungen der Formel (IV) im oben genannten Agardiffusionstest eine minimale Hemmkonzentration im Bereiche von ca. 0,1-200 µg/ml gegenüber sehr vielen pathogenen und nicht pathogenen Pilzen, z.B. gegen Pythium debarianum, Mucor hiemalis+, Mucor hiemalis-, Mucor miehei, Trichophyton mentagrophytes, Botrytis cinerea 157, Aspergillus fumigatus, und mehrere andere. So besitzen z.B. die nachstehend aufgeführten spezifischen Verbindungen die folgenden minimalen Hemmkonzentrationen gegenüber Mucor miehei: • Komponente A1 von Antibiotikum Tü 1718, d.h. (2S,5S)-2-(2-Hydroxyäthyl)-clavam = 10 ug/ml
(§1) Bei der […] kann der Plattendiffusionstest dienen, wobei vorzugsweise folgende Testkeime verwendet werden: Clostridium pasteurianum, Escherichia coli und Mucor miehei. Die minimale Hemmkonzentration der Hauptkomponente des Antibiotikums in µg/m1 gegenüber den eben genannten Mikroorganismen ist wie folgt: • Clostridium pasteurianum 50
(Agar diffusion results depend on both activity and mobility in agar.)

The test system of data set [2] is Clostridium pasteurianum. Put plainly: Plate diffusion test, minimal inhibitory concentration against Clostridium pasteurianum. Conditions: Plattendiffusionstest, read-out: minimale Hemmkonzentration. In kind it is cell-based.
Text: as §1

Data set [3] concerns Tumorzellen der Zellinie NS-1. Put plainly: Tumour-inhibiting effect on tumour cells of cell line NS-1. Particulars: Zellinie NS-1, compared with Actinomycin C. It is filed as cell-based, Maus. From the text: Das neue Antibiotikum, seine Extrakte und die neuen Verbindungen der Formel (IV) besitzen zudem auch eine tumorhemmende Wirkung, wie in Versuchen an Tumorzellen der Zellinie NS-1, einer Variante der Zelline P 3, die aus Mineralöl-induzierten Plastocytomen der Maus stammen, gezeigt werden kann.

Data set [4] in a line: Solubility in solvents and water. In kind it is physicochemical. From the text: (§2) Als Aufbewahrungsmittel eignet sich Chloroform. […] Es ist somit möglich, die Verbindungen in Form all jener pharmazeutischen Präparate zu verwenden, die Wasser enthalten, wie insbesondere von wässrigen Lösungen bei der parenteralen oder oralen Applikation, oder Cremen oder Salben oder Tinkturen bei der topischen Gabe.
(§3) Als Aufbewahrungsmittel eignet sich Chloroform. […] Bei der Dünnschichtchromatographie z.B. an Kieselgel-Alufolien kann die Substanz z.B. durch folgende Sprühreagenzien sichtbar gemacht werden: Ehrlich's Reagenz, rot; Vanillin/ ^H2S04, lindgrün; Ninhydrin, gelb mit violettem Rand.

A short description of data set [5]: Stability solvent-free and in aqueous solution. In kind it is physicochemical.
Text: as §2, §3

[6] abbreviates: Agardiffusionstest, read-out: minimale Hemmkonzentration gegenüber Mucor miehei.

Structures are written as SMILES. Converted amounts (≈) assume the structure as drawn. “Also recorded” adds a separate entry of the source. Read-outs that look alike come from different tables or passages of the source.

On to `O=C1C[C@@H]2O[C@@H](CCO)CN12` [Komponente A1 von Antibiotikum Tü 1718, (2S,5S)-2-(2-Hydroxyäthyl)-clavam], for which the MIC was 10 µg/mL (≈ 63.6 µM) in data set [1] (setting [6]); 10 to 20 µg/mL (≈ 63.6 to 127 µM) in data set [1] (Plattendiffusionstest, Mucor miehei, read-out: minimale Hemmkonzentration); 50 µg/mL (≈ 318 µM) in data set [2]. In data set [3], the “tumorhemmende Wirkung” value is on record as “ca. die Hälfte der tumorhemmenden Wirkung von Actinomycin C”. Also, the “Löslichkeit in Chloroform, Aceton, Methanol” value in data set [4] (Chloroform, Aceton, Methanol) is “sehr gut; also recorded: gut löslich”. Further, the “Löslichkeit in Wasser” value in data set [4] (Wasser) is given as “weniger gut löslich; also recorded: mässig löslich”. In addition, the “Stabilität in lösungsmittelfreiem Zustand” value in data set [5] (lösungsmittelfrei) is reported as “beschränkt stabil”. Besides, the “Stabilität in wässerigen Lösungen” value in data set [5] (wässerige Lösungen, pH 5-7) is on record as “einigermassen gute Stabilität”.
For `O=C(COc1ccccc1)OCC[C@H]1CN2C(=O)C[C@@H]2O1` [(2S,5S)-2-(2-Phenoxyacetoxyäthyl)-clavam], the MIC in data set [1] (setting [6]) is 0.1 µg/mL (≈ 0.343 µM).

Values taken from patent EP0057664A2, “Clavam derivatives” (CIBA-GEIGY AG, priority 1981, dated 1982).
